Data taken from patent US20140287120A1, “ORGANIC COMPOUNDS” (Givaudan S.A, priority 2011, published 2014).

Assay: Taste panel: intensity of umami and salt taste of solution B compared with reference solution A
Details: 10 ppm in a solution of 0.5% NaCl and 0.03% MSG, compared with solution A without compound; average rating of 4 flavourists; scale -3 (much lower than base) to 3 (much higher than base), 0 = same as base, 1 = slightly higher than base
Experimental: Two solutions were prepared:
A a solution of 0.5% NaCl and 0.03% MSG
B a solution of 0.5% NaCl and 0.03% MSG and 10 ppm Example 1 compound
The samples were tasted by a small group of flavourists (2 male, 2 female, aged between 30 and 60). The intensity of the umami and salt taste of solution B was compared with that of the reference (solution A) and rated according to the following intensity scale:
Taste effect much lower than base: −3
Taste effect lower than base: −2
Taste effect slightly lower than base: −1
Taste effect same as base: 0
Taste effect slightly higher than base: 1
Taste effect higher than base: 2
Taste effect much higher than base: 3
The results (average of rating given by the flavourists) were: […]

SMILES: CC(N)(CCC(=O)O)C(=O)O (racemic) [DL-2-methylglutamic acid, DL-2-Methylglutamic Acid]
- Intensity Taste Salt (NaCl): 1.00
- Intensity Taste Umami: 0.00
